This note sets out measurements from ChEMBL document CHEMBL1201862, “PubChem BioAssay data set” (2004).

Test in all cases: inhibition of tumour cell growth, NCI panel, 48 h
The subject of test [1] is HCT-116.
For test [2], the system named is UO-31.
Test [3] concerns IGROV-1.
The test system of test [4] is TK-10.
Test [5] relates to RXF 393.
Test [6] relates to HOP-62.
In test [7] the test system is ACHN.
The test system of test [8] is SK-MEL-28.
The test system of test [9] is OVCAR-4.
Test [10] relates to HL-60.
The subject of test [11] is CCRF-CEM.
Test [12] concerns NCI-H522.
Test [13] concerns HT-29.
Test [14] has as its system Hs-578T.
Test [15] deals with HOP-92.
The test system of test [16] is UACC-257.
Test [17] concerns PC-3.
Test [18] has as its system LOX IMVI.
Test [19] deals with RPMI-8226.
Test [20] concerns NCI-H23.

Structures are written as SMILES.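 Protocol summary: plate cells (96-well), add compound at 5 concentrations, incubate 48 h, interpolate endpoints linearly. Here, GI50 denotes the concentration required for 50% inhibition of growth.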 Activity calls are given as the source filed them. Cut-off read from the data, not from the text of the source: active = GI50 up to about 1.1 µM and inactive = higher.

Take `Cc1c2c(nc3ccccc13)C(=O)c1cccnc1C2=O`: the GI50 in test [1] was 3.91 µM (inactive); in test [2] it was 15.2 µM (inactive); in [3], 17.8 µM (inactive); in test [4] it was > 100 µM (inactive); in test [5] it was 63.5 µM (inactive); in test [6], 20.6 µM (inactive). Also, the GI50 was 10.6 µM (inactive) in [7]; 11.5 µM (inactive) in test [8]; 56.2 µM (inactive) in [9]; 15.1 µM (inactive) in test [10]; 22.4 µM (inactive) in test [11]; 6.87 µM (inactive) in test [12]. Moreover, the GI50 was 9.84 µM (inactive) in test [13]; 33.5 µM (inactive) in test [14]; 65.5 µM (inactive) in test [15]; 6.97 µM (inactive) in [16]; 24.3 µM (inactive) in test [17]; 10.7 µM (inactive) in [18]. The GI50 is 17 µM (inactive) in test [19] and 6.46 µM (inactive) in test [20].
In the case of `Cc1ccc2nc3c(C)c(Cl)c(=O)cc-3sc2c1`, the GI50 was 17.8 µM (inactive) in [1]; 10.2 µM (inactive) in test [2]; 37.9 µM (inactive) in [3]; 56.8 µM (inactive) in test [4]; 22.9 µM (inactive) in [5]; 27.5 µM (inactive) in test [6]. The GI50 in test [7] was 18.5 µM (inactive); in test [8] it was 32.7 µM (inactive); in test [9], 18 µM (inactive); in test [10], 2.59 µM (inactive); in [11] it was 3.63 µM (inactive); in test [12] it was 11.1 µM (inactive). Moreover, the GI50 in test [13] is 60.5 µM (inactive); in test [14], 21.7 µM (inactive); in [15], 34.4 µM (inactive); in test [16] it was 16.6 µM (inactive); in [17], 8.93 µM (inactive); in test [18], 13.9 µM (inactive). In addition, the GI50 in [19] is 3.85 µM (inactive); in [20] it was 13.2 µM (inactive).
As for `O=C1C=CC(=O)c2c(O)ccc(O)c21` [NAPHTHAZALIN], the GI50 is 0.9 µM (active) in test [1]; 2.11 µM (inactive) in test [2]; 7.96 µM (inactive) in test [3]; 1.26 µM (inactive) in [4]; 1.03 µM (active) in [5]; 9.75 µM (inactive) in test [6]. The GI50 in test [7] is 1.21 µM (inactive); in [8], 1.34 µM (inactive); in [9], 2.39 µM (inactive); in test [10], 0.292 µM (active); in test [11] it was 0.155 µM (active); in test [12], 0.505 µM (active). The GI50 is 2.17 µM (inactive) in [13]; 2.17 µM (inactive) in test [14]; 1.69 µM (inactive) in test [15]; 1.07 µM (active) in test [16]; 12.8 µM (inactive) in test [17]; 1.56 µM (inactive) in test [18]. The values for the GI50 in test [19] and in [20] were 0.436 µM (active) and 2.61 µM (inactive), respectively.
